Measurements: US8063055B2, “Substituted pyridone compounds and methods of use” (Amgen Inc., priority 2007, dated 2011)
Read-outs that look alike come from different tables or passages of the source.

How the values were obtained:
c-kit kinase enzyme = target: T1, c-kit kinase enzyme (Homo sapiens, UniProt P10721); assay: C-kit Homogeneous Time Resolved Fluorescent (HTRF) kinase assay; format: biochemical; details: c-kit catalytic domain, biotinylated Her-2 peptide substrate, ATP
T1 construct: (catalytic domain, N-terminal GST tagged, unphosphorylated)

[1] = tested on: SCF-stimulated UT-7 cells; details: Homo sapiens
Excerpt: SCF and GM-CSF Stimulated UT7 Proliferation/Survival Assay:
The purpose of this assay is to test the general anti-proliferative/cytotoxic effect of small molecule compounds on SCF or GM-CSF-stimulated UT-7 cells. Preventing SCF stimulated proliferation/survival is consistent with an on-mechanism effect whereas inhibition of GM-CSF driven proliferation/survival is indicative of off-target effects. UT-7 is a factor dependent human megakaryoblastic leukemia cell line that can be grown in either IL-3, GM-CSF, EPO or SCF (these cells have been confirmed to carry wild type c-kit receptor). Cells are maintained in growth media (IMDM, 10% HI-FBS, 1×PGS, 1 ng/mL GM-CSF). […] Small molecule compounds are first diluted in 100% DMSO, then diluted 1:4 in RT assay media. […] The treated cells are incubated in a 37° C. humidified incubator with 5% CO2 for 3 days. The amount of ATP is then measured as a surrogate marker for cell viability. […] The amount of SCF or GM-CSF stimulated viable cells in the presence of compound compared with in the presence of vehicle alone (HI control) is calculated using the formula: % control (POC)=(cpd−average LO)/(average HI−average LO)*100. Data (consisting of POC and inhibitor concentration in μM) is fitted to a 4-parameter equation (y=A+((B−A)/(1+((x/C)^D))), where A is the minimum y (POC) value, B is the maximum y (POC), C is the x (cpd concentration) at the point of inflection and D is the slope factor) using a Levenburg-Marquardt non-linear regression algorithm.

[2] = UT7, 72 h, read-out: UT7 Proliferation cell assay data
[3] = UT7, read-out: average IC50 value in the SCF stimulated UT7 proliferation and survival assay
[4] = read-out: HTRF Fret enzyme assay data

T1 sequence (P10721 589-937 limits assumed): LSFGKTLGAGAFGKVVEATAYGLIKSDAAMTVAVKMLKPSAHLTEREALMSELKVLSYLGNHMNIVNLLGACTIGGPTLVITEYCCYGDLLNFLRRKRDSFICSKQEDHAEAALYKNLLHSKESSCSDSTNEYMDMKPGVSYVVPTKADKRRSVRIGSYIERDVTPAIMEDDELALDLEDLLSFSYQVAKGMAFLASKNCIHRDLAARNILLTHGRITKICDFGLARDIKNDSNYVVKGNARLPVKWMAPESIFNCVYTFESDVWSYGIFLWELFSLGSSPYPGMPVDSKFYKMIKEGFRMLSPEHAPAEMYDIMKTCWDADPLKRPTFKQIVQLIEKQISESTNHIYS

How did the IC50 (c-kit kinase enzyme; HTRF Fret enzyme assay data) turn out when `Cc1ccn(CCC(C)(C)C)c(=O)c1-c1ccc2nc(N)ncc2c1` [Example 57, 3-(2-aminoquinazolin-6-yl)-1-(3,3-dimethylbutyl)-4-methylpyridin-2(1H)-one] was run?
Its IC50 is 16.3 nM.

And the IC50 [1, 2]?
The IC50 was 43 nM.

Which IC50 (c-kit kinase enzyme; HTRF Fret enzyme assay data) does the source give for `Cc1ccn(-c2cccc(OC(F)(F)F)c2)c(=O)c1-c1ccc2nc(N)ncc2c1` [Example 14, 3-(2-amino-6-quinazolinyl)-4-methyl-1-(3-((trifluoromethyl)oxy)phenyl)-2(1H)-pyridinone] here?
The IC50 was 4.04 nM.

And the IC50 [1, 2]?
The IC50 was 16.2 nM.

How did the IC50 (c-kit kinase enzyme; HTRF Fret enzyme assay data) turn out when `Cc1ccn(CCCC(C)C)c(=O)c1-c1ccc2nc(N)ncc2c1` [Example 61, 3-(2-aminoquinazolin-6-yl)-4-methyl-1-(4-methylpentyl)pyridin-2(1H)-one] was run?
Its IC50 is 1.12 nM.

What about the IC50 [1, 2] of the same compound?
The IC50 was 4 nM.

And the IC50 [1, 3]?
Its IC50 is ≤ 1000 nM.

For `Cc1ccn(-c2ccc(N3CCOCC3)cc2)c(=O)c1-c1ccc2nc(N)ncc2c1` [Example 34, 3-(2-aminoquinazolin-6-yl)-4-methyl-1-(4-morpholinophenyl)pyridin-2(1H)-one], which IC50 (c-kit kinase enzyme; [4]) is on record?
Its IC50 is 13 nM.

What about the IC50 [1, 2] of the same compound?
The IC50 was 72 nM.

`Cc1ccn(-c2ccc(-n3cccc3)cc2)c(=O)c1-c1ccc2nc(N)ncc2c1` [Example 5, 1-(4-(1H-pyrrol-1-yl)phenyl)-3-(2-aminoquinazolin-6-yl)-4-methylpyridin-2(1H)-one] was tested. Which IC50 (c-kit kinase enzyme; HTRF Fret enzyme assay data) did it give?
The IC50 was 2.25 nM.

And the IC50 [1, 2]?
Its IC50 is 4.83 nM.

And the IC50 [1, 3]?
The IC50 was ≤ 1000 nM.

What does the source list for `Cc1ccn(-c2ccc3c(c2)CCO3)c(=O)c1-c1ccc2nc(N)ncc2c1` [Example 17, 3-(2-amino-6-quinazolinyl)-1-(2,3-dihydro-1-benzofuran-5-yl)-4-methyl-2(1H)-pyridinone]?
IC50 (c-kit kinase enzyme; HTRF Fret enzyme assay data): 7.58 nM; IC50 [1, 2]: 15.1 nM

How did the IC50 (c-kit kinase enzyme; HTRF Fret enzyme assay data) turn out when `CCC(C)CCn1ccc(C)c(-c2ccc3nc(N)ncc3c2)c1=O` (stereo not shown) [Example 58, 3-(2-aminoquinazolin-6-yl)-4-methyl-1-(3-methylpentyl)pyridin-2(1H)-one] was run?
The IC50 was 2.51 nM.

What about the IC50 [1, 2] of the same compound?
Its IC50 is 9 nM.

What does the source list for `Cc1ccn(-c2ccc3c(ccn3-c3ccc4[nH]ccc4c3)c2)c(=O)c1-c1ccc2nc(N)ncc2c1` [Example 26, 3-(2-amino-6-quinazolinyl)-1-(1′H-1,5′-biindol-5-yl)-4-methyl-2(1H)-pyridinone]?
IC50 (c-kit kinase enzyme; HTRF Fret enzyme assay data): 2 nM; IC50 [1, 2]: 11 nM

How did the IC50 (c-kit kinase enzyme; [4]) turn out when `CCOC(=O)c1ccc(-n2ccc(C)c(-c3ccc4nc(N)ncc4c3)c2=O)cc1` [Example 29, ethyl 4-(3-(2-aminoquinazolin-6-yl)-4-methyl-2-oxopyridin-1(2H)-yl)benzoate] was run?
The IC50 was 17 nM.

And the IC50 [1, 2]?
Its IC50 is 66 nM.

Which results are given for `Cc1ccn(-c2ccc(-n3cccn3)cc2)c(=O)c1-c1ccc2nc(N)ncc2c1` [Example 38, 1-(4-(1H-pyrazol-1-yl)phenyl)-3-(2-aminoquinazolin-6-yl)-4-methylpyridin-2(1H)-one]?
IC50 (c-kit kinase enzyme; [4]): 10 nM; IC50 [1, 2]: 18 nM

For `Cc1ccn(-c2cccc(C#N)c2)c(=O)c1-c1ccc2nc(N)ncc2c1` [Example 9, 3-(3-(2-aminoquinazolin-6-yl)-4-methyl-2-oxopyridin-1(2H)-yl)benzonitrile], which IC50 (c-kit kinase enzyme; HTRF Fret enzyme assay data) is on record?
The IC50 was 88.8 nM.

And the IC50 [1, 2]?
The IC50 was 107 nM.

Which IC50 (c-kit kinase enzyme; HTRF Fret enzyme assay data) does the source give for `CC(=O)N1CC(C)(C)c2ccc(-n3ccc(C)c(-c4ccc5nc(N)ncc5c4)c3=O)cc21` [Example 19, 1-(1-acetyl-3,3-dimethyl-2,3-dihydro-1H-indol-6-yl)-3-(2-amino-6-quinazolinyl)-4-methyl-2(1H)-pyridinone] here?
Its IC50 is 9.75 nM.

What about the IC50 [1, 2] of the same compound?
The IC50 was 226 nM.

With `Cc1ccn(-c2cc(Cl)cc(Cl)c2)c(=O)c1-c1ccc2nc(N)ncc2c1` [Example 46, 3-(2-aminoquinazolin-6-yl)-1-(3,5-dichlorophenyl)-4-methylpyridin-2(1H)-one] as the compound, how does the IC50 (c-kit kinase enzyme; HTRF Fret enzyme assay data) read?
Its IC50 is 44 nM.

And the IC50 [1, 2]?
The IC50 was 35 nM.

For `Cc1ccn(-c2ccc3c(c2)NCC3(C)C)c(=O)c1-c1ccc2nc(N)ncc2c1` [Example 15, 3-(2-amino-6-quinazolinyl)-1-(3,3-dimethyl-2,3-dihydro-1H-indol-6-yl)-4-methyl-2(1H)-pyridinone], which IC50 (c-kit kinase enzyme; HTRF Fret enzyme assay data) is on record?
The IC50 was 4.7 nM.

What about the IC50 [1, 2] of the same compound?
The IC50 was 19.4 nM.

With `Cc1ccc(-n2ccc(C)c(-c3ccc4nc(N)ncc4c3)c2=O)cc1F` [Example 6, 3-(2-aminoquinazolin-6-yl)-1-(3-fluoro-4-methylphenyl)-4-methylpyridin-2(1H)-one] as the compound, how does the IC50 (c-kit kinase enzyme; [4]) read?
Its IC50 is 40.1 nM.

And the IC50 [1, 2]?
The IC50 was 12.1 nM.

What does the source list for `Cc1ccn(-c2ccc(F)c(F)c2)c(=O)c1-c1ccc2nc(N)ncc2c1` [Example 39, 3-(2-aminoquinazolin-6-yl)-1-(3,4-difluorophenyl)-4-methylpyridin-2(1H)-one]?
IC50 (c-kit kinase enzyme; HTRF Fret enzyme assay data): 48 nM; IC50 [1, 2]: 63 nM
